Earlier results on 1 compound are cited in US20250127175A1, “ANTIMICROBIAL POLYMER COMPOSITIONS, ANTIMICROBIAL POLYMER ARTICLES, AND METHODS OF MAKING THE SAME” (CORNING INCORPORATED, priority 2021, published 2025).

Molecules are shown by their SMILES.

For the series the following is noted: water-soluble defined as minimum of 20 grams in 100 milliliters of water at 25° C.

For the compound `CCCCn1cc[n+](C)c1.F[P-](F)(F)(F)(F)F` [1-butyl-3-methylimidazolium hexafluorophosphate], the “water solubility (in words)” value is recorded as “water insoluble”.
